Experimental data: PubChem BioAssay (NCI)
Several values for one entry are separate records, joined by “and”; a condition that tells them apart may be missing. Equal entries are not always repeated.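 Growth conditions: 96-well plates. Treatment: test compound, 48 hours, 5 concentrations. Analysis: linear interpolation between bracketing concentrations; unreached endpoints set to highest concentration. GI50 is the concentration that inhibits growth by half. Definition used: TGI = concentration required for complete inhibition of growth.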

Columns and labels:
Assay in all cases: DTP human tumour cell line panel, 48 h
[1] = tested on: MCF7 breast
[2] = tested on: MDA-MB-435
[3] = tested on: NCI-H460 lung
[4] = tested on: NCI/ADR-RES ovarian
[5] = tested on: OVCAR-4 ovarian
[6] = tested on: SF-295 CNS
[7] = tested on: TK-10 renal
[8] = tested on: U251 CNS
[9] = tested on: UO-31 renal
[10] = tested on: SNB-75 CNS

SMILES: COc1cc2c(cc1OC)-c1c(c3ccc([N+](=O)[O-])cc3c(=O)n1CCCN)C2=O
- GI50 [1]: 0.0545 µM
- TGI [1]: 7.09 µM
- GI50 [2]: 7.23 µM
- TGI [2]: 15.4 µM
- GI50 [3]: 0.403 µM
- TGI [3]: 8.97 µM
- GI50 [4]: 0.342 µM
- TGI [4]: 2.87 µM
- GI50 [5]: 1.07 µM
- TGI [5]: 2.72 µM
- GI50 [6]: 0.0566 µM
- TGI [6]: 10.5 µM
- GI50 [7]: 7.24 µM
- TGI [7]: 17.1 µM
- GI50 [8]: 0.267 µM
- TGI [8]: 1.05 µM
- GI50 [9]: 0.351 µM
- TGI [9]: 3.59 µM

SMILES: CC[C@@]1(O)C(=O)OCc2c1cc1n(c2=O)Cc2cc3c(NC(=O)CN)cccc3nc2-1
- TGI [1]: > 100 µM
- TGI [2]: 17.3 µM
- TGI [3]: 2.94 µM
- TGI [4]: > 100 µM
- TGI [5]: > 100 µM
- TGI [6]: 20.4 µM
- TGI [10]: 0.693 µM
- TGI [7]: > 81.7 µM
- TGI [8]: 5.16 µM
- TGI [9]: 3.55 µM

SMILES: CCN1CCC(CC(=O)Nc2n[nH]c3nc(-c4cccs4)c(Br)cc23)CC1
- GI50 [1]: 6.29 µM
- TGI [1]: 18.5 µM
- GI50 [2]: 5.35 µM
- TGI [2]: 14.5 µM
- GI50 [3]: 10.1 µM
- TGI [3]: > 25 µM
- GI50 [4]: > 20.7 µM
- TGI [4]: > 25 µM
- GI50 [5]: 11.5 µM
- TGI [5]: > 25 µM
- GI50 [6]: 10.7 µM
- TGI [6]: > 25 µM
- GI50 [10]: 2.34 µM
- TGI [10]: > 20.4 µM
- GI50 [7]: 5.81 µM
- TGI [7]: > 21.4 µM
- GI50 [8]: 6.78 µM
- TGI [8]: 19.4 µM
- GI50 [9]: 9.05 µM
- TGI [9]: > 25 µM

SMILES: CO/N=C(/COc1c(-c2ccccc2)oc2ccccc2c1=O)c1ccc(F)cc1
- GI50 [2]: > 100 µM
- TGI [2]: > 100 µM
- GI50 [4]: 86.4 µM
- TGI [4]: > 100 µM
- GI50 [5]: 25.9 µM
- TGI [5]: 71.4 µM
- GI50 [6]: 41.1 µM
- TGI [6]: > 100 µM
- GI50 [10]: 28 µM
- TGI [10]: 81.1 µM
- GI50 [7]: 27.2 µM
- TGI [7]: 95.7 µM
- GI50 [8]: 33.9 µM
- TGI [8]: > 100 µM
- GI50 [9]: > 100 µM
- TGI [9]: > 100 µM

SMILES: C[Si]12OCCCN(CCO1)CCO2
- TGI [3]: > 100 µM
- TGI [6]: > 100 µM
- TGI [10]: > 100 µM
- TGI [7]: > 100 µM
- TGI [8]: > 100 µM
- TGI [9]: > 100 µM

SMILES: COc1ccc(-n2c3c(c4c(CN(C)C)c(O)c(C)cc42)CCc2ccccc2C3=O)cc1
- GI50 [1]: > 100 µM
- TGI [1]: > 100 µM
- GI50 [2]: 14 µM
- TGI [2]: 40.4 µM
- GI50 [3]: 69.1 µM
- TGI [3]: > 100 µM
- GI50 [4]: 17.9 µM
- TGI [4]: 45.2 µM
- GI50 [6]: 35.6 µM
- TGI [6]: > 100 µM
- GI50 [7]: 47.2 µM
- TGI [7]: > 100 µM
- GI50 [8]: 28.3 µM
- TGI [8]: > 100 µM
- GI50 [9]: 45.9 µM
- TGI [9]: > 100 µM

SMILES: NC1=C(Cl)C(=O)c2ccccc2C1=O
- TGI [1]: 5.25 µM
- TGI [2]: 2.05 µM
- TGI [3]: 11 µM
- TGI [5]: 15.9 µM
- TGI [6]: 18.1 µM
- TGI [10]: 27.3 µM
- TGI [7]: 49 µM
- TGI [8]: 13.9 µM
- TGI [9]: 29.9 µM

SMILES: COc1ccc(-c2nc3sc4c(c3c(=O)[nH]2)CCCC4)c2ccccc12
- TGI [1]: > 100 µM
- GI50 [3]: 0.381 µM
- TGI [4]: 4.95 µM and 2.75 µM
- GI50 [5]: 2.23 µM
- GI50 [6]: 0.314 µM
- TGI [6]: 1.2 µM
- TGI [10]: 0.792 µM and 1.61 µM
- GI50 [7]: 3.53 µM
- GI50 [8]: 0.369 µM
- GI50 [9]: 0.59 µM

SMILES: Cn1c(=O)oc2cc(C3CCC(=O)N3Cc3ccc(Cl)cc3)ccc21 (stereo unspecified)
- TGI [3]: > 100 µM
- TGI [5]: > 100 µM
- TGI [6]: > 100 µM
- TGI [10]: > 100 µM
- TGI [7]: > 100 µM
- TGI [8]: > 100 µM
- TGI [9]: > 100 µM

SMILES: Cc1cc2c(cc1Br)C1(C)CCC(C)C1(C)O2 (stereo unspecified)
- TGI [3]: 53.7 µM
- TGI [5]: > 100 µM
- TGI [6]: 54.6 µM
- TGI [10]: > 100 µM
- TGI [7]: > 100 µM
- TGI [8]: 50.5 µM
- TGI [9]: > 100 µM

SMILES: C=C1C(=O)O[C@H]2C[C@@H]1CCC1(C)OC1CC/C(C)=C/CC[C@H]2C (stereo partly specified)
- GI50 [1]: 18 µM
- TGI [1]: 36.6 µM
- GI50 [2]: 18.9 µM
- TGI [2]: 34.6 µM
- GI50 [3]: 17.1 µM
- TGI [3]: 33.1 µM
- GI50 [4]: 18.5 µM
- TGI [4]: 35.4 µM
- GI50 [6]: 12.3 µM
- TGI [6]: 26.3 µM
- GI50 [7]: 17.6 µM
- TGI [7]: 31.8 µM
- GI50 [8]: 17.7 µM
- TGI [8]: 31.5 µM
- GI50 [9]: 29.8 µM
- TGI [9]: 86.6 µM

SMILES: CNC(=O)OCc1[nH]ccc2c(C)c3nc4ccc(OC)cc4c3cc12
- TGI [5]: 66.1 µM
- TGI [6]: > 100 µM
- TGI [10]: > 100 µM
- TGI [7]: > 79.1 µM
- TGI [8]: > 59.5 µM
- TGI [9]: > 53.9 µM

SMILES: Cc1ccc2[nH]c(C(=O)NN3C(=O)C(C)SC34CCCCC4C)c(-c3ccccc3)c2c1 (stereo unspecified)
- GI50 [1]: 23.1 µM
- TGI [1]: > 100 µM
- GI50 [2]: 16.4 µM
- TGI [2]: 33.1 µM
- GI50 [3]: 22 µM
- TGI [3]: 58.5 µM
- GI50 [5]: 15.9 µM
- TGI [5]: 36.1 µM
- GI50 [6]: 17.8 µM
- TGI [6]: 35.5 µM
- GI50 [10]: 21.2 µM
- TGI [10]: 41.7 µM
- GI50 [7]: 19.1 µM
- TGI [7]: 35.6 µM
- GI50 [8]: 16.1 µM
- TGI [8]: 32.8 µM
- GI50 [9]: 16.8 µM
- TGI [9]: 32.6 µM

SMILES: O=C(O)CCCNS(=O)(=O)c1ccc2ccccc2c1
- TGI [3]: > 100 µM
- TGI [5]: > 100 µM
- TGI [6]: > 100 µM
- TGI [10]: > 100 µM
- TGI [7]: > 100 µM
- TGI [8]: > 100 µM
- TGI [9]: > 100 µM

SMILES: CC(=O)O[C@H]1CC[C@@]2(C)C(=CC[C@@H]3C2CC[C@]2(C)Nc4[nH]ncc4CC32)C1 (stereo partly specified)
- TGI [3]: 33.7 µM
- TGI [5]: 37.2 µM
- TGI [6]: > 100 µM
- TGI [10]: > 100 µM
- TGI [7]: > 100 µM
- TGI [8]: 30.7 µM
- TGI [9]: > 100 µM

SMILES: NC(N)=N/N=C/c1c(-c2ccc(Cl)c([N+](=O)[O-])c2)nc2ccccn12
- GI50 [4]: > 100 µM
- TGI [4]: > 100 µM
- GI50 [6]: 1.82 µM
- TGI [6]: 3.42 µM
- GI50 [9]: 1.71 µM
- TGI [9]: 3.79 µM

SMILES: CC(=O)OC12CC(C)C3(O)C4C=C(C)C(=O)[C@@]4(O)CC(CO)=C[C@H]3C1C2(C)C (stereo partly specified)
- GI50 [1]: > 1000 µM
- TGI [1]: > 1000 µM
- GI50 [2]: 0.205 µM
- GI50 [4]: > 1000 µM
- TGI [4]: > 1000 µM
- GI50 [5]: > 1000 µM
- TGI [5]: > 1000 µM
- GI50 [10]: > 1000 µM
- TGI [10]: > 1000 µM
- GI50 [8]: > 1000 µM
- TGI [8]: > 1000 µM
- GI50 [9]: > 1000 µM
- TGI [9]: > 1000 µM

SMILES: CN(CCN(C)C(=O)CCOS(C)(=O)=O)C(=O)CCOS(C)(=O)=O
- TGI [3]: > 100 µM
- TGI [5]: > 100 µM
- TGI [6]: > 100 µM
- TGI [10]: > 100 µM
- TGI [7]: > 100 µM
- TGI [8]: > 100 µM

SMILES: CCOC(=O)c1cnc2cc3cccccc3n2c1=O
- TGI [3]: > 100 µM
- TGI [5]: > 100 µM
- TGI [6]: > 100 µM
- TGI [10]: > 100 µM
- TGI [7]: > 100 µM
- TGI [8]: > 100 µM
- TGI [9]: > 100 µM

SMILES: Clc1cc(Cl)cc(Nc2nc3ccccc3nc2-c2cccs2)c1
- TGI [3]: 41.6 µM
- TGI [6]: 45.8 µM
- TGI [10]: > 100 µM
- TGI [7]: 75.6 µM
- TGI [9]: > 100 µM

SMILES: COc1ccc2c(c1)CCCC1C3=NCCC3(C)CSC21 (stereo unspecified)
- TGI [3]: > 100 µM
- TGI [5]: > 100 µM
- TGI [6]: > 100 µM
- TGI [10]: > 100 µM
- TGI [7]: > 100 µM
- TGI [8]: > 100 µM
